According to ChEMBL document CHEMBL1137682, “Synthesis, characterization and structure-activity relationship analysis of novel depsides as potential antibacterials” (2009):
Values after ≈ are worked out from the molar mass of the structure shown.

Experiments:
Assay type in all cases: functional
Escherichia coli = test: Antibacterial activity against Escherichia coli ATCC 35218 after 24 hrs by MTT assay; settings: ATCC 35218, 24 h
Bacillus subtilis = test: Antibacterial activity against Bacillus subtilis ATCC 6633 after 24 hrs by MTT assay; settings: ATCC 6633, 24 h
Pseudomonas aeruginosa = test: Antibacterial activity against sPseudomonas aeruginosa ATCC 13525 after 24 hrs by MTT assay; settings: ATCC 13525, 24 h
Enterococcus faecalis = test: microbe, parasite or virus in culture; settings: ATCC 9790, 24 h
Staphylococcus aureus = test: Antibacterial activity against Staphylococcus aureus ATCC 6538 after 24 hrs by MTT assay; settings: ATCC 6538, 24 h
Enterobacter cloacae = test: Antibacterial activity against Enterobacter cloacae ATCC 13047 after 24 hrs by MTT assay; settings: ATCC 13047, 24 h

Structure (SMILES) | MIC (Escherichia coli) | MIC (Bacillus subtilis) | MIC (Pseudomonas aeruginosa) | MIC (Enterococcus faecalis) | MIC (Staphylococcus aureus) | MIC (Enterobacter cloacae)
COC(=O)Cc1ccccc1OC(=O)c1ccc(Cl)cc1 | > 50 µg/mL | 25 µg/mL (≈ 82 µM) | 25 µg/mL (≈ 82 µM) | 12.5 µg/mL (≈ 41 µM) | > 50 µg/mL | 25 µg/mL (≈ 82 µM)
CN(C)[C@@H]1C(O)=C(C(N)=O)C(=O)[C@@]2(O)C(O)=C3C(=O)c4c(O)cccc4[C@@](C)(O)[C@H]3C[C@@H]12 [TETRACYCLINE] | 6.25 µg/mL (≈ 14.1 µM) | 1.56 µg/mL (≈ 3.51 µM) | 1.56 µg/mL (≈ 3.51 µM) | 0.78 µg/mL (≈ 1.76 µM) | 1.56 µg/mL (≈ 3.51 µM) | 1.56 µg/mL (≈ 3.51 µM)
COC(=O)Cc1ccccc1OC(=O)Cc1ccc(Br)cc1 | > 50 µg/mL | 6.25 µg/mL (≈ 17.2 µM) | 25 µg/mL (≈ 68.8 µM) | 6.25 µg/mL (≈ 17.2 µM) | 6.25 µg/mL (≈ 17.2 µM) | 3.12 µg/mL (≈ 8.6 µM)
CCOC(=O)Cc1ccccc1O | 25 µg/mL (≈ 139 µM) | 6.25 µg/mL (≈ 34.7 µM) | 12.5 µg/mL (≈ 69.4 µM) | 25 µg/mL (≈ 139 µM) | 12.5 µg/mL (≈ 69.4 µM) | 12.5 µg/mL (≈ 69.4 µM)
NC[C@H]1O[C@H](O[C@H]2[C@H](O)[C@@H](O[C@H]3O[C@H](CO)[C@@H](O)[C@H](N)[C@H]3O)[C@H](N)C[C@@H]2N)[C@H](N)[C@@H](O)[C@@H]1O [BEKANAMYCIN] | 3.12 µg/mL (≈ 6.46 µM) | 0.39 µg/mL (≈ 0.807 µM) | 3.12 µg/mL (≈ 6.46 µM) | 3.12 µg/mL (≈ 6.46 µM) | 1.56 µg/mL (≈ 3.23 µM) | 1.56 µg/mL (≈ 3.23 µM)
COC(=O)Cc1ccccc1OC(=O)Cc1ccc(OC)c(OC)c1 | > 50 µg/mL | 25 µg/mL (≈ 72.6 µM) | 6.25 µg/mL (≈ 18.1 µM) | > 50 µg/mL | > 50 µg/mL | 6.25 µg/mL (≈ 18.1 µM)
COC(=O)Cc1ccccc1OC(=O)Cc1cccc(Br)c1 | 6.25 µg/mL (≈ 17.2 µM) | 1.56 µg/mL (≈ 4.3 µM) | 25 µg/mL (≈ 68.8 µM) | 25 µg/mL (≈ 68.8 µM) | > 50 µg/mL | > 50 µg/mL
COC(=O)Cc1ccccc1OC(=O)c1ccc(C)cc1 | 3.12 µg/mL (≈ 11 µM) | 12.5 µg/mL (≈ 44 µM) | 12.5 µg/mL (≈ 44 µM) | > 50 µg/mL | 25 µg/mL (≈ 87.9 µM) | 6.25 µg/mL (≈ 22 µM)
COC(=O)Cc1ccccc1OC(=O)c1ccccc1Cl | 25 µg/mL (≈ 82 µM) | > 50 µg/mL | > 50 µg/mL | 25 µg/mL (≈ 82 µM) | 3.12 µg/mL (≈ 10.3 µM) | > 50 µg/mL
CCOC(=O)Cc1ccccc1OC(=O)c1cc(OC)cc(OC)c1 | > 50 µg/mL | > 50 µg/mL | 6.25 µg/mL (≈ 18.1 µM) | 25 µg/mL (≈ 72.6 µM) | > 50 µg/mL | 25 µg/mL (≈ 72.6 µM)
CCOC(=O)Cc1ccccc1OC(=O)c1cccc([N+](=O)[O-])c1 | 3.12 µg/mL (≈ 9.49 µM) | 0.78 µg/mL (≈ 2.37 µM) | 6.25 µg/mL (≈ 19 µM) | 1.56 µg/mL (≈ 4.74 µM) | 3.12 µg/mL (≈ 9.49 µM) | 6.25 µg/mL (≈ 19 µM)
CCOC(=O)Cc1ccccc1OC(=O)c1ccc(C)cc1 | 3.12 µg/mL (≈ 10.5 µM) | 25 µg/mL (≈ 83.8 µM) | 12.5 µg/mL (≈ 41.9 µM) | > 50 µg/mL | > 50 µg/mL | 6.25 µg/mL (≈ 20.9 µM)
COC(=O)Cc1ccccc1OC(=O)Cc1ccc(F)cc1 | 25 µg/mL (≈ 82.7 µM) | 6.25 µg/mL (≈ 20.7 µM) | 25 µg/mL (≈ 82.7 µM) | 12.5 µg/mL (≈ 41.3 µM) | 12.5 µg/mL (≈ 41.3 µM) | 6.25 µg/mL (≈ 20.7 µM)
CCOC(=O)Cc1ccccc1OC(=O)c1ccc(Cl)cc1 | > 50 µg/mL | 25 µg/mL (≈ 78.4 µM) | > 50 µg/mL | 25 µg/mL (≈ 78.4 µM) | > 50 µg/mL | > 50 µg/mL
CCOC(=O)Cc1ccccc1OC(=O)Cc1cccc(OC)c1 | 25 µg/mL (≈ 76.1 µM) | > 50 µg/mL | 6.25 µg/mL (≈ 19 µM) | 12.5 µg/mL (≈ 38.1 µM) | > 50 µg/mL | > 50 µg/mL
COC(=O)Cc1ccccc1OC(=O)c1cccc([N+](=O)[O-])c1 | 3.12 µg/mL (≈ 9.91 µM) | 0.78 µg/mL (≈ 2.47 µM) | 6.25 µg/mL (≈ 19.8 µM) | 1.56 µg/mL (≈ 4.95 µM) | 1.56 µg/mL (≈ 4.95 µM) | 12.5 µg/mL (≈ 39.6 µM)

Structure (SMILES) | MIC (Escherichia coli) | MIC (Bacillus subtilis) | MIC (Pseudomonas aeruginosa) | MIC (Enterococcus faecalis) | MIC (Staphylococcus aureus) | MIC (Enterobacter cloacae)
COC(=O)Cc1ccccc1OC(=O)c1cc(OC)cc(OC)c1 | 25 µg/mL (≈ 75.7 µM) | > 50 µg/mL | 6.25 µg/mL (≈ 18.9 µM) | > 50 µg/mL | > 50 µg/mL | > 50 µg/mL
CCOC(=O)Cc1ccccc1OC(=O)Cc1ccc(Cl)cc1 | > 50 µg/mL | 6.25 µg/mL (≈ 18.8 µM) | 25 µg/mL (≈ 75.1 µM) | 12.5 µg/mL (≈ 37.6 µM) | 6.25 µg/mL (≈ 18.8 µM) | 6.25 µg/mL (≈ 18.8 µM)
CCOC(=O)Cc1ccccc1OC(=O)Cc1cccc(Cl)c1 | 6.25 µg/mL (≈ 18.8 µM) | 3.12 µg/mL (≈ 9.39 µM) | > 50 µg/mL | 6.25 µg/mL (≈ 18.8 µM) | 6.25 µg/mL (≈ 18.8 µM) | 25 µg/mL (≈ 75.1 µM)
CCOC(=O)Cc1ccccc1OC(=O)Cc1cccc(Br)c1 | 6.25 µg/mL (≈ 16.6 µM) | 1.56 µg/mL (≈ 4.14 µM) | 25 µg/mL (≈ 66.3 µM) | > 50 µg/mL | > 50 µg/mL | > 50 µg/mL
CN[C@H](CC(C)C)C(=O)N[C@H]1C(=O)N[C@@H](CC(N)=O)C(=O)N[C@H]2C(=O)N[C@H]3C(=O)N[C@H](C(=O)N[C@H](C(=O)O)c4cc(O)cc(O)c4-c4cc3ccc4O)[C@H](O)c3ccc(c(Cl)c3)Oc3cc2cc(c3O[C@@H]2O[C@H](CO)[C@@H](O)[C@H](O)[C@H]2O[C@H]2C[C@](C)(N)[C@H](O)[C@H](C)O2)Oc2ccc(cc2Cl)[C@H]1O.Cl [VANCOMYCIN HYDROCHLORIDE] | > 50 µg/mL | 0.39 µg/mL | > 50 µg/mL | 1.56 µg/mL | 0.78 µg/mL | > 50 µg/mL
COC(=O)Cc1ccccc1OC(=O)Cc1ccc(Cl)cc1 | 6.25 µg/mL (≈ 19.6 µM) | 12.5 µg/mL (≈ 39.2 µM) | > 50 µg/mL | 25 µg/mL (≈ 78.4 µM) | 3.12 µg/mL (≈ 9.8 µM) | 12.5 µg/mL (≈ 39.2 µM)
COC(=O)Cc1ccccc1OC(=O)Cc1cccc(OC)c1 | > 50 µg/mL | > 50 µg/mL | 6.25 µg/mL (≈ 19.9 µM) | > 50 µg/mL | 25 µg/mL (≈ 79.5 µM) | > 50 µg/mL
CCOC(=O)Cc1ccccc1OC(=O)Cc1ccc(OC)c(OC)c1 | > 50 µg/mL | 12.5 µg/mL (≈ 34.9 µM) | 12.5 µg/mL (≈ 34.9 µM) | > 50 µg/mL | 25 µg/mL (≈ 69.8 µM) | 6.25 µg/mL (≈ 17.4 µM)
CC1(C)S[C@@H]2[C@H](NC(=O)Cc3ccccc3)C(=O)N2[C@H]1C(=O)O [PENICILLIN G] | 6.25 µg/mL (≈ 18.7 µM) | 1.56 µg/mL (≈ 4.67 µM) | 6.25 µg/mL (≈ 18.7 µM) | 1.56 µg/mL (≈ 4.67 µM) | 1.56 µg/mL (≈ 4.67 µM) | 3.12 µg/mL (≈ 9.35 µM)
COC(=O)Cc1ccccc1OC(=O)Cc1cccc(Cl)c1 | > 50 µg/mL | 3.12 µg/mL (≈ 9.8 µM) | 12.5 µg/mL (≈ 39.2 µM) | 12.5 µg/mL (≈ 39.2 µM) | 3.12 µg/mL (≈ 9.8 µM) | 25 µg/mL (≈ 78.4 µM)
COC(=O)c1ccc(O)cc1 [METHYLPARABEN] | 6.25 µg/mL (≈ 41.1 µM) | 6.25 µg/mL (≈ 41.1 µM) | 6.25 µg/mL (≈ 41.1 µM) | 12.5 µg/mL (≈ 82.2 µM) | 6.25 µg/mL (≈ 41.1 µM) | 25 µg/mL (≈ 164 µM)
CCOC(=O)Cc1ccccc1OC(=O)Cc1ccc(OCC)c(OCC)c1 | 1.56 µg/mL (≈ 4.04 µM) | 12.5 µg/mL (≈ 32.3 µM) | 3.12 µg/mL (≈ 8.09 µM) | 1.56 µg/mL (≈ 4.04 µM) | 3.12 µg/mL (≈ 8.09 µM) | 3.12 µg/mL (≈ 8.09 µM)
CCOC(=O)Cc1ccccc1OC(=O)c1ccccc1Cl | 6.25 µg/mL (≈ 19.6 µM) | > 50 µg/mL | 25 µg/mL (≈ 78.4 µM) | > 50 µg/mL | 6.25 µg/mL (≈ 19.6 µM) | > 50 µg/mL
CCOC(=O)Cc1ccccc1OC(=O)Cc1ccc(Br)cc1 | > 50 µg/mL | 12.5 µg/mL (≈ 33.1 µM) | 25 µg/mL (≈ 66.3 µM) | > 50 µg/mL | 12.5 µg/mL (≈ 33.1 µM) | 3.12 µg/mL (≈ 8.28 µM)
CCOC(=O)Cc1ccccc1OC(=O)Cc1ccc(F)cc1 | 25 µg/mL (≈ 79 µM) | 12.5 µg/mL (≈ 39.5 µM) | > 50 µg/mL | 6.25 µg/mL (≈ 19.8 µM) | 25 µg/mL (≈ 79 µM) | 12.5 µg/mL (≈ 39.5 µM)
COC(=O)Cc1ccccc1O | 12.5 µg/mL (≈ 75.2 µM) | 12.5 µg/mL (≈ 75.2 µM) | 25 µg/mL (≈ 150 µM) | 12.5 µg/mL (≈ 75.2 µM) | 6.25 µg/mL (≈ 37.6 µM) | 6.25 µg/mL (≈ 37.6 µM)
